This is an account of results in patent US6455578B1, “Aromatic derivatives and iron complexes thereof for the use as normalizing agents of the iron level” (Laboratoire Medidom S.A., priority 1998, dated 2002).

A short description of data set [1]: In vivo tests on permeation of rat erythrocytes / detection in rat tissues and excretion. The note with it: rats, 20 mg per Kg in DMSO by intraperitoneal route; 15, 30 and 60 minutes after treatment.
Data set [2] concerns erythrocytes. The data set can be described thus: In vitro tests on permeation into erythrocytes. The format is in vitro ADME, rat. To be noted: for found in the aqueous medium containing the phosphate buffer after resuspension of loaded erythrocytes: loaded erythrocytes resuspended in fresh buffer; for found in the aqueous medium containing the phosphate buffer after resuspension of loaded erythrocytes / found in the plasmatic medium after resuspension of loaded erythrocytes / distribution between previously overloaded erythrocytes and the aqueous medium of resuspension: further 30 minutes at 37 C; for found in the plasmatic medium after resuspension of loaded erythrocytes: loaded erythrocytes resuspended in their plasma; for distribution between previously overloaded erythrocytes and the aqueous medium of resuspension: loaded erythrocytes resuspended in fresh plasma or fresh buffer; for time in which a balance between intracellular and extracellular environment is reached: rat erythrocytes. On the procedure: Solutions of 3-hydroxy-2-methyl-4H-1-benzopyran-4-one prepared as in Example 1 and the related Fe(III) complex obtained in acetone as in Example 4 were used for suitable sampling in incubation flasks. For the complex acetone is evaporated, and the biologic samples are then added to the residue. Whole blood of rat deprived of leucocytes, or alternatively erythrocytes washed and resuspended in 127 mM of sodium phosphate 50% buffer (pH=7.4) and containing 23 mM of NaCl, were added into the incubation flasks and incubated at 37° C. for 15 and respectively 30 minutes.
At those times erythrocytes were separeted by centrifugation and separately extracted together with the supernatants with 2 volumes of ethyl acetate. The related quantities of the tested substances were measured by spectrophotometry in ethyl acetate and compared with suitable standards. After 30 minutes of incubation the 3-hydroxy-2-methyl-4H-1-benzopyran-4-one as well as the related Fe(III) complex were found in the erythrocytes for 51% and for 49% in the aqueous medium. After 30 minutes of incubation 50% of the sedimented erythrocytes are resuspended in their fresh plasma and the remaining 50% in fresh buffer.
Erhytrocytes of rat were separated from their plasma deprived of leucocytes. Part of the erythrocytes were resuspended in sodium phosphate 50% buffer (pH=7.4), and another part of the erythrocytes were joined to part of their plasma so to obtained a 50% hematocrit. To both suspensions were added alternatively 100 mg/l of 3-hydroxy-2-(5-hydroxypentyl)-4H-benzopyran-4-one prepared as in Example 3 and 50 mg/l of the related Fe(III) complex prepared as in Example 5, and the incubation was made at 37° C. After 30 minutes the erythrocytes were separated by centrifugation and extracted separately together with supernatants with ethyl acetate. The quantities of the tested substances were measured by spectrophotometry in ethyl acetate and compared to suitable standards.
After 30 minutes incubation the 40% of 3-hydroxy-2-(5-hydroxypenthyl)-4H-1-benzopyran-4-one, as well as of the ferric complex thereof, were found in the erythrocytes and the remaining 60% in the medium represented by plasma. When the medium is the phosphate buffer the 60% of the tested compounds were found in erythrocytes and the remaining 40% in the medium.
After sedimentation 50% of the erythrocytes containing the tested compounds was resuspended in their plasma and the remaining 50% in fresh buffer. After a further 30 minutes incubation at 37° C. 60% of 3-hydroxy-2-(5-hydroxypentyl)-4H-1-benzopyran-4-one and of the related complex were found in the plasmatic medium and the remaining 40% in the aqueous medium containing the phosphate buffer. Therefore the chelating agent as well as the related ferric complex do permeate into cellular membranes in both directions, and are uniformly distributed in the intracellular and in the extracellular environment.

Data set [3] can be described thus: Partition test between n-octanol and aqueous solution pH 7.4. The note with it: for partition between n-octanol and aqueous solution (result in words): n-octanol / aqueous 20 mM tris(hydroxymethyl)aminomethane chlorhydrate pH 7.4, Example 7: concentration 100 mM. Type of data set: physicochemical. As for the experimental part:
In particular, partition experiments have been carried out between n-ottanol and an aqueous solution 20 mM of tris(hydroxymethyl)aminomethane chlorohydrate brought to pH=7.4 by adding sodium phosphate, obtaining values of the ripartition coefficient, expressed as the ratio between the concentration of the compound in the organic phase and that in the aqueous phase, tipically higher than 20, for the present formula (I) compounds as well as for the Fe (III) complexes thereof.
The partition coefficient between n-octanol and an aqueous solution 20 mM of tris(hydroxymethyl)aminomethane brought to pH=7.4 by the addition of sodium phosphate has been determined by spectrophotometry at room temperature for 3-hydroxy-2-methyl-4H-1-benzopyran-4-one and for the related Fe(III) complex.
In the aqueous solution the 3-hydroxy-2-methyl-4H-1-benzopyran-4one obtained as described in Example 1 was dissolved in the quantity sufficient to have a concentration equal to 10^−4 M. 5 ml of said solution were centrifuged with 5 ml of n-octanol, and the two resulting phases were separated for a concentration determination on each by spectrophotometry.
The partition coefficient, expressed as the ratio between the concentration of the compound in n-octanol and its concentration in the aqueous solution, resulted 24. In the same aqueous solution above described the Fe(III) complex obtained as in Example 4 was dissolved, in the sufficient quantity to obtain a concentration equal to 2×10^−4 M. 5 ml of said solution are centrifuged with 5 ml of n-octanol, then the two resulting phases were separated for a concentration determination on each by spectrophotometry. A partition coefficient equal to 25 was obtained.
According to the procedure described in Example 6 partition data were determined between n-octanol and an aqueous solution 20 mM of tris(hydroxymethyl)aminomethane chlorhydrate brought to pH 7.4 by addition of sodium phosphate, for 3-hydroxy-2-(5-hydroxypentyl)-4H-1-benzopyran-4-one prepared as in Example 3 as well as for the related Fe(III) complex prepared as in Example 5.
In the aqueous solution 3-hydroxy-2-(5-hydroxypentyl)-4H-1-benzopyran-4-one as prepared in Example 3 was dissolved so to obtain a concentration equal to 100 mM. 5 ml of said solution were centrifuged with 5 ml of n-octanol, then the two resulting phases, the aqueous and the organic one, were separated for a concentration determination on each by spectrophotometry.
The same experiment was repeated by dissolving the Fe(III) complex prepared as in Example 5 in the above described aqueous solution.

The nature of data set [4]: In vivo tests on permeation of rat erythrocytes / detection in rat tissues and excretion. To be noted: for Qualitative detection in Erythrocytes / Qualitative detection in Plasma / Qualitative detection in Brain / Qualitative detection in Liver / Qualitative detection in Urine: rat, single oral dose 20 mg per Kg. As for the experimental part: The tests are performed on male rats Sprague-Dawley weighting from 250 to 300 g.
The chelating agent 3-hydroxy-2-methyl-4H-1-benzopyran-4-one prepared as in Example 1, vehiculated by 4 parts of β-cyclodextrine for each part of chelating agent, is administered to the rats in a single oral dose comprising 20 mg of chelating agent per Kg of body weight.
The chelating agent 3-hydroxy-2-(5-hydroxypentyl)-4H-1-benzopyran-4-one prepared as in Example 3 is administered to the rats in a single oral dose, comprising 2% of methyl cellulose and 20 mg of chelating agent per Kg of body weight.

Data set [5] in a line: Stability constant of the Fe(III) complex by cyclic voltammetry. The format is physicochemical. On the procedure:
wherein R5 is CH3, has been measured by voltammetry with a Pt electrode as the working electrode and with a calomel electrode as the reference electrode, obtaining a stability constant equal to 3.0×10^10.
The complexation cynetics has been moreover studied by cyclic voltammetry with a Pt electrode as the working electrode and a calomel electrode as the reference electrode, in the following conditions:ferric perchlorate (7 mg) is dissolved in 20 ml of a NaCl solution 150 mM containing 5% of DMSO, and this solution is put into the voltammetric cell for the plot registration; from this plot the half-wave potential for the ferric salt can be deduced: (E½)s Fe^3+/Fe^2+=0.420 V.
3-hydroxy-2-methyl-4H-1-benzopyran-4-one (10.5 mg) is dissolved in DMSO (3 ml), and with the so obtained solution 4 additions are made to the voltammetric cell, registering the cyclic voltammetric plot after every addition. […]
The stability constant of the complex is calculated according to the following formula: [formula]
wherein (E½)s e (E½)c are the half-wave potential of the salt and, respectively, of the complex above reported, n is the number of electrons, β is the stability constant of the complex and c is its concentration, and p is the number of chelating agent molecules in the complex. The so calculated value of the stability constant is […].

[6] abbreviates: medium phosphate buffer pH 7.4, 37 C, 30 minutes, 100 mg/l ligand or 50 mg/l complex.
Setting [7] is: medium plasma, 50% hematocrit, 37 C, 30 minutes, 100 mg/l ligand or 50 mg/l complex.
The mark [8] stands for this setting: rat whole blood deprived of leucocytes or washed erythrocytes in phosphate buffer pH 7.4, 37 C, 30 minutes incubation.
The mark [9] stands for this setting: male Sprague-Dawley rats, single oral dose 20 mg per Kg with beta-cyclodextrine.

`O=c1c(O)c(CCCCCO)oc2ccccc12` [3-hydroxy-2-(5-hydroxypentyl)-4H-1-benzopyran-4-one] gave a melting point of 111 to 112 °C. For the same compound, the presence in erythrocytes entry in data set [1] is given as “has been revealed”. Further, in data set [2], the “found in the aqueous medium containing the phosphate buffer after resuspension of loaded erythrocytes” value worked out at 40% and the “found in the plasmatic medium after resuspension of loaded erythrocytes” value is 60%. In addition, in data set [2] (setting [6]), the found in erythrocytes is listed as 60% and the “found in the medium” value is recorded as 40%. For the same compound, in data set [2] (setting [7]), the “found in the erythrocytes” value was 40% and the “found in the medium” value was 60%. In addition, the “partition between n-octanol and aqueous solution (result in words)” value in data set [3] is recorded as “completely pass in the alcoholic phase”. Moreover, the presence in urine entry in data set [4] (male Sprague-Dawley rats, single oral dose 20 mg per Kg in 2% methyl cellulose, 12, 24 and 48 hours from administration) is recorded as “has been revealed”. In addition, the presence in plasma result in data set [4] (rats, 20 mg per Kg in DMSO by intraperitoneal route, 15, 30 and 60 minutes after treatment) is reported as “has been revealed”.

For `Cc1oc2ccccc2c(=O)c1O` [3-hydroxy-2-methyl-4H-1-benzopyran-4-one], the melting point lay in the range of 179 to 180 °C. Moreover, the “distribution between previously overloaded erythrocytes and the aqueous medium of resuspension” value in data set [2] is reported as “equally distributed”. Further, the “time in which a balance between intracellular and extracellular environment is reached” value in data set [2] (37 C) is given as “ca. 30 minutes”. In data set [2] (setting [8]), the “found in the aqueous medium” value was 49% and the “found in the erythrocytes” value is recorded as 51%. Further, in data set [3] (n-octanol / aqueous 20 mM tris(hydroxymethyl)aminomethane pH 7.4, room temperature, spectrophotometry, ligand 10^-4 M, complex 2x10^-4 M, read-out: partition coefficient (concentration in n-octanol / concentration in aqueous solution) (converted)), the logD was 1.38. In addition, in data set [4] (setting [9]), the “presence in urine (onset)” value is “starting from twenthyfourth hour”; the “time of maximum presence (erythrocytes, brain and liver)” value is listed as “maximum in the fourth hour”. In addition, in data set [4] (male Sprague-Dawley rats, single oral dose 20 mg per Kg with beta-cyclodextrine, spectrophotometry and fluorimetry), the “presence in erythrocytes, brain and liver (first detection)” value is given as “found already in the first hour”. In data set [4] (1/2 hr after administration), the “Qualitative detection in Erythrocytes” value is listed as “p(+)” and the “Qualitative detection in Plasma” value was “p(+)”. In data set [4] (1 hr after administration), the “Qualitative detection in Brain” value is reported as “p(+)”, the “Qualitative detection in Erythrocytes” value is listed as “p(++)”, the “Qualitative detection in Liver” value was “p(+)” and the “Qualitative detection in Plasma” value was “p(++)”. Also, in data set [4] (4 hr after administration), the “Qualitative detection in Brain” value is recorded as “p(++)”, the “Qualitative detection in Erythrocytes” value was “p(+++)”, the “Qualitative detection in Liver” value is given as “p(+++)” and the “Qualitative detection in Plasma” value was “p(++)”. Further, the “Qualitative detection in Urine” value in data set [4] (4 hr after administration) was “p(+)”. In data set [4] (24 hr after administration), the “Qualitative detection in Brain” value is given as “p(++)”, the “Qualitative detection in Liver” value is listed as “p(++)” and the “Qualitative detection in Urine” value is on record as “p(++)”. Besides, in data set [4] (48 hr after administration), the “Qualitative detection in Urine” value is reported as “p(+++)”.

Take “Fe(III) complex of 3-hydroxy-2-(5-hydroxypentyl)-4H-1-benzopyran-4-one”: in data set [2], the “found in the aqueous medium containing the phosphate buffer after resuspension of loaded erythrocytes” value amounted to 40% and the “found in the plasmatic medium after resuspension of loaded erythrocytes” value is listed as 60%. Also, in data set [2] (setting [6]), the found in erythrocytes worked out at 60% and the “found in the medium” value is on record as 40%. In data set [2] (setting [7]), the “found in the erythrocytes” value is listed as 40% and the “found in the medium” value came to 60%. For the same compound, the “partition between n-octanol and aqueous solution (result in words)” value in data set [3] is listed as “completely pass in the alcoholic phase”.

As for “Fe(III) complex of 3-hydroxy-2-methyl-4H-1-benzopyran-4-one”, in data set [2], the “distribution between previously overloaded erythrocytes and the aqueous medium of resuspension” value is on record as “equally distributed”. Moreover, the “time in which a balance between intracellular and extracellular environment is reached” value in data set [2] (37 C) is given as “ca. 30 minutes”. In data set [2] (setting [8]), the “found in the aqueous medium” value is 49% and the “found in the erythrocytes” value was 51%. Further, in data set [3] (n-octanol / aqueous 20 mM tris(hydroxymethyl)aminomethane pH 7.4, room temperature, spectrophotometry, ligand 10^-4 M, complex 2x10^-4 M), the “partition coefficient (concentration in n-octanol / concentration in aqueous solution)” value worked out at 25. The “half-wave potential of the complex (E1/2) Fe3+/Fe2+” value in data set [5] (cyclic voltammetry, after first addition of 0.5 ml chelating agent solution in DMSO) is listed as 0.120 V. Also, the “stability constant of the Fe(III) complex” value in data set [5] (voltammetry, Pt working electrode, calomel reference electrode, NaCl 150 mM containing 5% DMSO) is reported as 3.0×10^10.

By melting point is commonly meant the temperature of the solid-liquid transition.
